Experimental data published in patent publication US5399696A, “Isoquinolinyl compounds which are intermediates” (Eli Lilly and Company, priority 1993, dated 1995).

Columns and labels:
[1] = target: NMDA receptor; assay: Radioligand binding: displacement of [^3 H]CGS19755 from synaptosomal membranes of rat forebrain (NMDA receptor affinity); settings: [^3 H]CGS19755 10 nM, mean ± standard error (n = 3), values marked ^c single experiment
Description: (§1) The formula I compounds were tested for their ability to inhibit NMDA, AMPA, and kainic acid receptor binding to rat membranes in a radioligand binding assay using [^3 H]CGS19755, [^3 H]AMPA, and [^3 H]KA. For all radioligand binding assays, male Sprague-Dawley rats were used. […] Non-specific binding was determined using 10 μM L-glutamate. Samples were incubated in an ice-bath for 30 minutes, and bound ligand was separated from the free ligand by rapid filtration through WHATMAN GF/B glass fiber filters. Murphy et al, British J. Pharmacol., 95, 932-938 (1988). Kainate binding was performed using washed synaptosomal membranes from the rat forebrain as described by Simon et al. Simon et al, J. Neurochem., 26, 141-147 (1976). Tritiated kainate (5 nM) was added to 50 mM Tris-HCl buffer (pH 7.4 at 4° C.) containing 200-300 μg/ml of tissue protein. Samples were incubated for 30 minutes in an ice-bath, then rapidly filtered using a Brandel cell harvester and WHATMAN GF/C filters. Filters were washed twice with 3 ml of cold buffer. Non-specific binding was determined using 100 μM non-labeled kainate. The binding of [^3 H]AMPA (5 nM) was conducted with crude membranes of rat forebrain in the presence of 100 mM KSCN as described by Nielson et al. Nielson et al, Eur. J. Med. Chem. Chim. Ther., 21, 433-437 (1986). Non-specific binding was determined with 10 μM non-labeled AMPA. The concentration of the formula I compound that inhibited 50% binding (IC50, mean ±standard error, n=3) as calculated by linear regression of displacement data transformed to the Hill equation as described by Bennett. Bennett, Neurotransmitter Receptor Binding, 57-90 (1978).

[2] = target: kainic acid (KA) receptor; assay: Radioligand binding: tritiated kainate binding with washed synaptosomal membranes from the rat forebrain; settings: tritiated kainate 5 nM, pH 7.4, mean ± standard error (n = 3), values marked ^c single experiment
Description: as §1

[3] = target: AMPA receptor; assay: Radioligand binding: [^3 H]AMPA binding with crude membranes of rat forebrain
Description: as §1

[4] = target: NMDA receptor; assay: Antagonism of NMDA-induced depolarization of rat cortical wedges; assay type: cell-based; settings: NMDA 40 μM, mean ± standard error (n = 3), read-out: IC50 NMDA, antagonism of cortical wedge depolarization
Description: (§2) The depolarization of rat cortical wedges was used to test the selectivity and potency of the formula I compounds as AMPA antagonists using a technique similar to that described by Harrison and Simmonds. Harrison and Simmonds, Bri. J. Pharmacol., 84, 381-391 (1984). Generally, 4-ml aliquots of NMDA (40 μM), AMPA (40 μM), and kainate (10 μM) were superfused (2 ml/min.) on the grey matter at intervals of 15-20 minutes until stable responses were attained. The tissue was then exposed for 15 minutes to various concentrations of the formula I compounds before retesting the agonists. The IC50 values were calculated from linear regression of log dose-response curves, each point the mean of at least three observations on separate slices from more than one animal.

[5] = system: AMPA receptor; assay: Antagonism of AMPA-induced depolarization of rat cortical wedges; assay type: cell-based
Description: as §2

[6] = target: kainic acid (KA) receptor; assay: Antagonism of kainate-induced depolarization of rat cortical wedges; assay type: cell-based; settings: kainate 10 μM, mean ± standard error (n = 3)
Description: as §2

[7] = system: AMPA receptor; settings: cited: Sheardown et al.; Buchan et al.; LePeillet et al.; cited from earlier work
[8] = Table I, racemic, [^3 H]AMPA 5 nM, 100 mM KSCN, mean ± standard error (n = 3), values marked ^c single experiment, read-out: IC50 AMPA, receptor binding
[9] = text summary of Table I, racemic, read-out: selectively displaced ^3 H-AMPA with IC50 values
[10] = Table III; cortical wedge; racemic
[11] = Table III; racemic; AMPA 40 μM; mean ± standard error (n = 3); read-out: IC50 AMPA, antagonism of cortical wedge depolarization
[12] = Table II, enantiopure, [^3 H]AMPA 5 nM, 100 mM KSCN, mean ± standard error (n = 3), values marked ^c single experiment, read-out: IC50 AMPA, receptor binding
[13] = Table IV; enantiopure; AMPA 40 μM; mean ± standard error (n = 3); read-out: IC50 AMPA, antagonism of cortical wedge depolarization

Structure (SMILES)	IC50 ([1]; Table I, racemic)	IC50 KA, receptor binding ([2]; Table I, racemic)	IC50 [3, 8]	IC50 [3, 9]	IC50 ([4]; Table III, racemic)	selective AMPA receptor antagonism (in words) [5, 10]	IC50 [5, 11]	IC50 KA, antagonism of cortical wedge depolarization ([6]; Table III, racemic)	IC50 ([1]; Table II, enantiopure)	IC50 KA, receptor binding ([2]; Table II, enantiopure)	IC50 [3, 12]	IC50 ([4]; Table IV, enantiopure)	IC50 [5, 13]	IC50 KA, antagonism of cortical wedge depolarization ([6]; Table IV, enantiopure)	IC50 ([5]; read-out: IC50 AMPA, antagonism of cortical wedge depolarization; Table IV; enantiopure; AMPA 40 μM; mean ± standard error (n = 3))	prevention of global and focal ischemic damage (in words) [7]
O=C(O)[C@@H]1C[C@H]2C[C@@H](CSc3nnn[nH]3)CC[C@H]2CN1 (racemic) [Compound 4, (3SR,4aRS,6SR,8aRS)-6-[2-(1(2)H-Tetrazole-5-yl)-2-thiaethyl]decahydroisoquinoline-3-carboxylic Acid]	29.4 ± 6.8 µM	30.1 ± 1.6 µM	0.9 ± 0.14 µM	< 15 µM	> 100 µM	selective AMPA receptor antagonists	3.3 ± 0.9 µM	> 100 µM								
O=C(O)[C@@H]1C[C@H]2C[C@H](CSc3nnn[nH]3)CC[C@H]2CN1 (racemic) [Compound 5, (3SR,4aRS,6RS,8aRS)-6-[2-(1(2)H-Tetrazole-5-yl)-2-thiaethyl]decahydroisoquinoline-3-carboxylic Acid]	47.9 ± 3.9 µM	37.3 ± 2.3 µM	4.9 ± 0.4 µM	< 15 µM	> 100 µM	selective AMPA receptor antagonists	6.1 ± 1.5 µM	> 100 µM								
O=C(O)[C@@H]1C[C@H]2C[C@@H](CCc3cc(O)no3)CC[C@H]2CN1 (racemic) [Compound 13, (3SR,4aRS,6RS,8aRS)-6-[2-(3-Hydroxyisoxazole-5-yl)ethyl]decahydroisoquinoline-3-carboxylic Acid]	> 100 µM	> 100 µM	13.8 ± 1.24 µM	< 15 µM	> 100 µM	selective AMPA receptor antagonists	16.5 ± 2.7 µM	> 100 µM								
O=C(O)[C@@H]1C[C@H]2C[C@H](CSc3nn[nH]n3)CC[C@H]2CN1 [Compound 25, (3S,4aR,6R,8aR)-6[2(1(2)H-Tetrazole-5-yl)-2-thiaethyl]decahydroisoquinoline-3-carboxylic Acid]									> 100 µM	27.9 µM	17.8 µM	> 100 µM	9 ± 0.8 µM	29.1 ± 4.3 µM		
O=C(O)[C@H]1C[C@@H]2C[C@H](CSc3nn[nH]n3)CC[C@@H]2CN1 [Compound 24]									> 10 µM	> 100 µM	21.9 µM	> 100 µM	19.8 ± 2.2 µM	> 31.6 µM		
O=C(O)[C@@H]1C[C@H]2C[C@@H](COCc3nnn[nH]3)CC[C@H]2CN1 (racemic) [Compound 7, (3SR,4aRS,6SR,8aRS)-6-[(1(2)H-Tetrazole-5-yl)methoxymethyl]decahydroisoquinoline-3-carboxylic Acid]	> 10 µM	> 10 µM	> 10 µM		> 100 µM		16 ± 1.4 µM	> 100 µM								
O=C(O)[C@@H]1C[C@H]2C[C@@H](CSc3nn[nH]n3)CC[C@H]2CN1 [Compound 23]									16.3 µM	12.5 µM	0.58 ± 0.03 µM	22.9 ± 3.8 µM	1.35 ± 0.35 µM	> 31.6 µM		
O=C(O)[C@@H]1C[C@H]2C[C@@H](CCc3nn[nH]n3)CC[C@H]2CN1 [Compound 21, (3S,4aR,6R,8aR)-(-)-6-[2-(1(2)H-Tetrazole-5-yl)ethyl]decahydroisoquinoline-3-carboxylic Acid]									12.1 ± 2 µM	28.1 ± 1.7 µM	1.35 ± 0.13 µM	< 100 µM		< 100 µM	1.78 ± 0.23 µM	
O=C(O)[C@@H]1C[C@H]2C[C@@H](C=Cc3nsnc3O)CC[C@H]2CN1 (racemic) [Compound 20, (3SR,4aRS,6SR,8aRS)-6-[2-(3-Hydroxy-1,2,5-thiadiazole-4-yl)ethenyl]decahydroisoquinoline-3-carboxylic Acid]	> 100 µM	> 100 µM	83.4 µM		> 100 µM		100 µM	> 100 µM								
O=C(O)[C@@H]1C[C@H]2C[C@@H](CS(=O)(=O)c3ncn[nH]3)CC[C@H]2CN1 (racemic) [Compound 15, (3SR,4aRS,6SR,8aRS)-6-[(1(2-4)H-1,2,4-Triazole-5-yl)sulfonylmethyl]decahydroisoquinoline-3-carboxylic Acid]	> 100 µM	> 100 µM	1.67 ± 0.14 µM	< 15 µM	> 100 µM	selective AMPA receptor antagonists	2.16 ± 0.79 µM	Ca. 10 μM								
O=C(O)[C@@H]1C[C@H]2C[C@H](CCSc3nnn[nH]3)CC[C@H]2CN1 (racemic) [Compound 8, (3SR,4aRS,6RS,8aRS)-6-[3-(1(2)H-Tetrazole-5-yl)-3-thiaprop-1-yl]decahydroisoquinoline-3-carboxylic Acid]	49.2 ± 1.86 µM	28.76 ± 2.21 µM	10.6 ± 2 µM		> 100 µM		6.8 ± 1.5 µM	18.1 ± 5.1 µM								
NS(=O)(=O)c1cccc2c1c([N+](=O)[O-])cc1nc(O)c(O)nc12 [NBQX, 2,3-dihydroxy-6-nitro-7-sulfamoylbenzo[f]quinoxaline]																effective in preventing global and focal ischemic damage
O=C(O)[C@@H]1C[C@H]2C[C@@H](CSc3ncn[nH]3)CC[C@H]2CN1 (racemic) [Compound 14, (3SR,4aRS,6SR,8aRS)-6-[2-(1(2-4)H-1,2,4-Triazol-5-yl)-2-thiaethyl]decahydroisoquinoline-3-carboxylic Acid]	> 10 µM	> 10 µM	> 10 µM		> 100 µM		68.8 ± 12.3 µM	> 100 µM								
